Test system: Klebsiella pneumoniae (KPN) isolates
Assay: MIC of compounds alone and combined with antibacterials, broth microdilution (CLSI)
Format: cell-based
Procedure, shortened: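 Log-phase isolates were inoculated at a final 5.10^5 CFU/mL in cation-adjusted Mueller-Hinton broth and incubated 16-20 h at 35° C in ambient air. MIC was the lowest concentration preventing visible growth; for combinations, the antibacterial MIC was read at each compound concentration.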

C=CC1=C(C(=O)O)N2C(=O)[C@@H](NC(=O)/C(=N\OCC(=O)O)c3csc(N)n3)[C@H]2SC1 [FIX, Cefixime]
MIC ATB in combination (KPN 140513, AF2 @ 8 μg/mL): 8 µg/mL
MIC ATB in combination (KPN 140513, AF3 @ 8 μg/mL): 32 µg/mL
MIC ATB in combination (KPN 140513, CLA @ 4 μg/mL): >128 µg/mL
MIC ATB in combination (KPN 160143, AF2 @ 8 μg/mL): <0.25 µg/mL
MIC ATB in combination (KPN 160143, AF3 @ 8 μg/mL): <0.25 µg/mL
MIC ATB in combination (KPN 160143, CLA @ 4 μg/mL): 2 µg/mL
MIC ATB in combination (KPN 190128, AF2 @ 8 μg/mL): 1 µg/mL
MIC ATB in combination (KPN 190128, AF3 @ 8 μg/mL): 1 µg/mL
MIC ATB in combination (KPN 190128, CLA @ 4 μg/mL): 0.5 µg/mL
MIC ATB in combination (KPN 190270, AF2 @ 8 μg/mL): 0.5 µg/mL
MIC ATB in combination (KPN 190270, AF3 @ 8 μg/mL): 0.5 µg/mL
MIC ATB in combination (KPN 190270, CLA @ 4 μg/mL): 1 µg/mL
MIC ATB in combination (KPN 190425, AF2 @ 8 μg/mL): 0.5 µg/mL
MIC ATB in combination (KPN 190425, AF3 @ 8 μg/mL): <=0.25 μg/mL
MIC ATB in combination (KPN 190425, CLA @ 4 μg/mL): <=0.25 μg/mL
MIC ATB in combination (KPN 190551, AF2 @ 8 μg/mL): <0.25 µg/mL
MIC ATB in combination (KPN 190551, AF3 @ 8 μg/mL): <0.25 µg/mL
MIC ATB in combination (KPN 190551, CLA @ 4 μg/mL): <=0.25 μg/mL
MIC ATB in combination (KPN 200047, AF2 @ 8 μg/mL): <0.25 µg/mL
MIC ATB in combination (KPN 200047, AF3 @ 8 μg/mL): <0.25 µg/mL
MIC ATB in combination (KPN 200047, CLA @ 4 μg/mL): <=0.25 μg/mL
MIC ATB in combination (KPN 200327, AF2 @ 8 μg/mL): <0.25 µg/mL
MIC ATB in combination (KPN 200327, AF3 @ 8 μg/mL): <0.25 µg/mL
MIC ATB in combination (KPN 200327, CLA @ 4 μg/mL): <=0.25 μg/mL
MIC ATB in combination (KPN 260251, AF2 @ 8 μg/mL): <=0.25 μg/mL
MIC ATB in combination (KPN 260251, AF3 @ 8 μg/mL): <=0.25 μg/mL
MIC ATB in combination (KPN 260251, CLA @ 4 μg/mL): 32 µg/mL
MIC ATB in combination (KPN 260252, AF2 @ 8 μg/mL): 16 µg/mL
MIC ATB in combination (KPN 260252, AF3 @ 8 μg/mL): 16 µg/mL
MIC ATB in combination (KPN 260252, CLA @ 4 μg/mL): 128 µg/mL
MIC ATB in combination (KPN 260376, AF2 @ 8 μg/mL): <0.25 µg/mL
MIC ATB in combination (KPN 260376, AF3 @ 8 μg/mL): <0.25 µg/mL
MIC ATB in combination (KPN 260376, CLA @ 4 μg/mL): <=0.25 μg/mL
MIC ATB in combination (KPN 270077, AF2 @ 8 μg/mL): 0.5 µg/mL
MIC ATB in combination (KPN 270077, AF3 @ 8 μg/mL): <=0.25 μg/mL
MIC ATB in combination (KPN 270077, CLA @ 4 μg/mL): 0.5 µg/mL
MIC ATB in combination (KPN 700603, AF2 @ 8 μg/mL): <=0.25 μg/mL
MIC ATB in combination (KPN 700603, AF3 @ 8 μg/mL): 0.5 µg/mL
MIC ATB in combination (KPN 700603, CLA @ 4 μg/mL): 0.5 µg/mL
MIC ATB in combination (KPN ARA, AF2 @ 8 μg/mL): <=0.25 μg/mL
MIC ATB in combination (KPN ARA, AF3 @ 8 μg/mL): <0.25 µg/mL
MIC ATB in combination (KPN ARA, CLA @ 4 μg/mL): 128 µg/mL
MIC ATB in combination (KPN BAA-1898, AF2 @ 8 μg/mL): <=0.25 μg/mL
MIC ATB in combination (KPN BAA-1898, AF3 @ 8 μg/mL): <=0.25 μg/mL
MIC ATB in combination (KPN BAA-1898, CLA @ 4 μg/mL): 64 µg/mL
MIC ATB in combination (KPN LIB, AF2 @ 8 μg/mL): <0.25 µg/mL
MIC ATB in combination (KPN LIB, AF3 @ 8 μg/mL): <0.25 µg/mL
MIC ATB in combination (KPN LIB, CLA @ 4 μg/mL): <=0.25 μg/mL
MIC ATB in combination (KPN UFR22_O, AF2 @ 8 μg/mL): <=0.25 μg/mL
MIC ATB in combination (KPN UFR22_O, AF3 @ 8 μg/mL): <=0.25 μg/mL
MIC ATB in combination (KPN UFR22_O, CLA @ 4 μg/mL): <=0.25 μg/mL
MIC ATB in combination (KPN UFR23, AF2 @ 8 μg/mL): <=0.25 μg/mL
MIC ATB in combination (KPN UFR23, AF3 @ 8 μg/mL): <0.25 µg/mL
MIC ATB in combination (KPN UFR23, CLA @ 4 μg/mL): <=0.25 μg/mL
MIC ATB in combination (KPN UFR24, AF2 @ 8 μg/mL): 0.5 µg/mL
MIC ATB in combination (KPN UFR24, AF3 @ 8 μg/mL): 0.5 µg/mL
MIC ATB in combination (KPN UFR24, CLA @ 4 μg/mL): 64 µg/mL
MIC ATB in combination (KPN UFR25, AF2 @ 8 μg/mL): <0.25 µg/mL
MIC ATB in combination (KPN UFR25, AF3 @ 8 μg/mL): <0.25 µg/mL
MIC ATB in combination (KPN UFR25, CLA @ 4 μg/mL): 64 µg/mL
MIC ATB in combination (KPN UFR27, AF2 @ 8 μg/mL): 8 µg/mL
MIC ATB in combination (KPN UFR27, AF3 @ 8 μg/mL): 8 µg/mL
MIC ATB in combination (KPN UFR27, CLA @ 4 μg/mL): >128 µg/mL
MIC ATB in combination (KPN UFR28, AF2 @ 8 μg/mL): <0.25 µg/mL
MIC ATB in combination (KPN UFR28, AF3 @ 8 μg/mL): 2 µg/mL
MIC ATB in combination (KPN UFR28, CLA @ 4 μg/mL): 64 µg/mL
MIC ATB in combination (KPN UFR33, AF2 @ 8 μg/mL): <=0.25 μg/mL
MIC ATB in combination (KPN UFR33, AF3 @ 8 μg/mL): >128 µg/mL
MIC ATB in combination (KPN UFR33, CLA @ 4 μg/mL): >128 µg/mL
MIC ATB in combination (KPN UFR42, AF2 @ 8 μg/mL): 128 µg/mL
MIC ATB in combination (KPN UFR42, AF3 @ 8 μg/mL): >128 µg/mL
MIC ATB in combination (KPN UFR42, CLA @ 4 μg/mL): >128 µg/mL
MIC ATB in combination (KPN UFR43, AF2 @ 8 μg/mL): <0.25 µg/mL
MIC ATB in combination (KPN UFR43, AF3 @ 8 μg/mL): <0.25 µg/mL
MIC ATB in combination (KPN UFR43, CLA @ 4 μg/mL): >128 µg/mL
MIC ATB in combination (KPN UFR46, AF2 @ 8 μg/mL): >128 µg/mL
MIC ATB in combination (KPN UFR46, AF3 @ 8 μg/mL): >128 µg/mL
MIC ATB in combination (KPN UFR46, CLA @ 4 μg/mL): >128 µg/mL
MIC ATB in combination (KPN UFR53, AF2 @ 8 μg/mL): <0.25 µg/mL
MIC ATB in combination (KPN UFR53, AF3 @ 8 μg/mL): <=0.25 μg/mL
MIC ATB in combination (KPN UFR53, CLA @ 4 μg/mL): 128 µg/mL
MIC ATB in combination (KPN UFR65, AF2 @ 8 μg/mL): 0.5 µg/mL
MIC ATB in combination (KPN UFR65, AF3 @ 8 μg/mL): <=0.25 μg/mL
MIC ATB in combination (KPN UFR65, CLA @ 4 μg/mL): 128 µg/mL
MIC ATB in combination (KPN UFR66, AF2 @ 8 μg/mL): 4 µg/mL
MIC ATB in combination (KPN UFR66, AF3 @ 8 μg/mL): 4 µg/mL
MIC ATB in combination (KPN UFR66, CLA @ 4 μg/mL): 64 µg/mL
MIC ATB in combination (KPN UFR67, AF2 @ 8 μg/mL): 4 µg/mL
MIC ATB in combination (KPN UFR67, AF3 @ 8 μg/mL): 4 µg/mL
MIC ATB in combination (KPN UFR67, CLA @ 4 μg/mL): 128 µg/mL
MIC ATB in combination (KPN UFR68, AF2 @ 8 μg/mL): 0.5 µg/mL
MIC ATB in combination (KPN UFR68, AF3 @ 8 μg/mL): 0.5 µg/mL
MIC ATB in combination (KPN UFR68, CLA @ 4 μg/mL): 64 µg/mL
MIC ATB in combination (KPN UFR76, AF2 @ 8 μg/mL): >128 µg/mL
MIC ATB in combination (KPN UFR76, AF3 @ 8 μg/mL): >128 µg/mL
MIC ATB in combination (KPN UFR76, CLA @ 4 μg/mL): >128 µg/mL
MIC ATB in combination (KPN UFR77, AF2 @ 8 μg/mL): 0.5 µg/mL
MIC ATB in combination (KPN UFR77, AF3 @ 8 μg/mL): <=0.25 μg/mL
MIC ATB in combination (KPN UFR77, CLA @ 4 μg/mL): 128 µg/mL
MIC ATB in combination (KPN UFR78, AF2 @ 8 μg/mL): >128 µg/mL
MIC ATB in combination (KPN UFR78, AF3 @ 8 μg/mL): >128 µg/mL
MIC ATB in combination (KPN UFR78, CLA @ 4 μg/mL): >128 µg/mL
MIC ATB in combination (KPN UFR79, AF2 @ 8 μg/mL): 2 µg/mL
MIC ATB in combination (KPN UFR79, AF3 @ 8 μg/mL): 2 µg/mL
MIC ATB in combination (KPN UFR79, CLA @ 4 μg/mL): >128 µg/mL
MIC ATB in combination (KPN UFR80, AF2 @ 8 μg/mL): <=0.25 μg/mL
MIC ATB in combination (KPN UFR80, AF3 @ 8 μg/mL): <=0.25 μg/mL
MIC ATB in combination (KPN UFR80, CLA @ 4 μg/mL): 0.5 µg/mL
MIC ATB in combination (KPN UFR81, AF2 @ 8 μg/mL): 64 µg/mL
MIC ATB in combination (KPN UFR81, AF3 @ 8 μg/mL): 32 µg/mL
MIC ATB in combination (KPN UFR81, CLA @ 4 μg/mL): >128 µg/mL
MIC ATB in combination (KPN UFR215, AF2 @ 8 μg/mL): <=0.25 μg/mL
MIC ATB in combination (KPN UFR215, AF3 @ 8 μg/mL): <=0.25 μg/mL
MIC ATB in combination (KPN UFR215, CLA @ 4 μg/mL): 1 µg/mL
MIC ATB in combination (KPN UFR216, AF2 @ 8 μg/mL): <0.25 µg/mL
MIC ATB in combination (KPN UFR216, AF3 @ 8 μg/mL): <0.25 µg/mL
MIC ATB in combination (KPN UFR216, CLA @ 4 μg/mL): <=0.25 μg/mL
MIC ATB in combination (KPN UFR217, AF2 @ 8 μg/mL): <0.25 µg/mL
MIC ATB in combination (KPN UFR217, AF3 @ 8 μg/mL): <0.25 µg/mL
MIC ATB in combination (KPN UFR217, CLA @ 4 μg/mL): <=0.25 μg/mL
MIC ATB in combination (KPN UFR218, AF2 @ 8 μg/mL): <0.25 µg/mL
MIC ATB in combination (KPN UFR218, AF3 @ 8 μg/mL): <0.25 µg/mL
